Experiments:
sPLA2-IIA = target: T1, sPLA2-IIA (Homo sapiens, UniProt P14555); assay: inhibition of sPLA2-IIA activity; assay type: biochemical; conditions: finding of the present invention
T1 sequence (P14555 21-144): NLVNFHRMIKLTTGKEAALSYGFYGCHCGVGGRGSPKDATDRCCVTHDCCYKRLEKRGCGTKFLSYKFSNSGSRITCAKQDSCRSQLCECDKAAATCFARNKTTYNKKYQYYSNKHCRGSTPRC

several sPLA2 isoforms = assay: inhibition of several sPLA2 isoforms; assay type: biochemical

`CCc1c(C(=O)C(N)=O)c2c(OCC(=O)O)cccc2n1Cc1ccccc1` [Compound B] was tested, and the “preferential inhibition of sPLA2-IIA” value (sPLA2-IIA) was “preferentially inhibit sPLA2-IIA”.

In the case of `CCc1c(C(=O)C(N)=O)c2c(OCC(=O)O)cc3ccccc3c2n1Cc1ccccc1` [R0050907A], the “inhibition of the activity of several sPLA2 isoforms” value (several sPLA2 isoforms) is reported as “inhibits the activity of several sPLA2 isoforms”.

In the case of `CCc1c(C(=O)C(N)=O)c2c(OC)cc3ccccc3c2n1Cc1ccccc1` [R0032107A], the “preferential inhibition of sPLA2-IIA” value (sPLA2-IIA) is reported as “preferentially inhibit sPLA2-IIA”.

Reference: patent US8372594B2, “Secreted phospholipase A2 biomarkers for arthritis” (Case Western Reserve University, priority 2009, dated 2013)
